In patent publication US9637473B2, “Acrylamide derivatives as antimalarial agents” (priority 2013, dated 2017) one finds IC50 data, which are given here for 21 compounds.

The subject of the first assay is P. Falciparum NF54. The experiment in a line: Plasmodium falciparum in vitro assay ([3H]-hypoxanthine incorporation). The format is cell-based. The settings on record: P. Falciparum NF54, erythrocytic stages in human red blood cells, 50% human serum. In outline:
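This in vitro antimalarial assay used P. falciparum erythrocytic stages cultured in human erythrocytes and measured [3H]-hypoxanthine incorporation. Radioactivity on the dried filters, placed in plastic foil with 10 mL scintillation fluid, was counted in a Betaplate liquid scintillation counter. Sigmoidal inhibition curves built in Microsoft Excel gave the IC50.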
`CN(c1ccncc1)c1ccc(CN(C(=O)/C=C/c2ccc(C(F)(F)F)cc2)C2C[C@@H]3CN(C4CCCC4)C[C@@H]3C2)cc1` (single isomer, unassigned) [Example 66] registered an IC50 of 0.014 µM.

The assay is the same for the next values; noted with them: Plasmodium falciparum, Erythrocyte, P. Falciparum NF54, erythrocytic stages in human red blood cells, 50% human serum.
In the case of `CN1CCC(N2CCCCC(N(Cc3ccc(N(C)c4ccncc4)cc3)C(=O)/C=C/c3ccc(C(F)(F)F)cc3)C2)CC1` (racemic) [Example 70, (±)-(E)-N-(4-(methyl(pyridin-4-yl)amino)benzyl)-N-(1-(1-methylpiperidin-4-yl)azepan-3-yl)-3-(4-(trifluoromethyl)phenyl)acrylamide], the IC50 stood at 0.02 µM. Regarding `Cc1cc(Nc2ccc(CN(C(=O)/C=C/c3ccc(C(F)(F)F)cc3)C3CCN(Cc4ccc(O)c(CN(C)C)c4)CC3)cc2)ccn1` [Example 53, (E)-N-[1-(3-Dimethylaminomethyl-4-hydroxy-benzyl)-piperidin-4-yl]-N-[4-(2-methyl-pyridin-4-ylamino)-benzyl]-3-(4-trifluoromethyl-phenyl)-acrylamide], the IC50 was 0.012 µM. Compound `CN(c1ccncc1)c1ccc(CN(C(=O)/C=C/c2ccc(C(F)(F)F)cc2)[C@H]2CC[C@@H](N(C)C)CC2)cc1` [Example 191, (±)-cis-(E)-N-(4-Dimethylamino-cyclohexyl)-N-[4-(methyl-pyridin-4-yl-amino)-benzyl]-3-(4-trifluoromethyl-phenyl)-acrylamide] came in with an IC50 of 0.034 µM. Same read-out and setting: the result for `Cc1ccc(CN2CCC(N(Cc3ccc(N(C)c4ccncc4)cc3)C(=O)/C=C/c3ccc(C(F)(F)F)cc3)CC2)cc1` [Example 12, (E)-N-[1-(4-Methyl-benzyl)-piperidin-4-yl]-N-[4-(methyl-pyridin-4-yl-amino)-benzyl]-3-(4-trifluoromethyl-phenyl)-acrylamide] reads 0.029 µM; that for `CN(c1ccncc1)c1ccc(CN(C(=O)/C=C/c2ccc(C(F)(F)F)cc2)C2CCCCN(C3CCCC3)C2)cc1` (racemic) [Example 71, (±)-(E)-N-(1-cyclopentylazepan-3-yl)-N-(4-(methyl(pyridin-4-yl)amino)benzyl)-3-(4-(trifluoromethyl)phenyl)acrylamide], 0.167 µM; that for `CN(c1ccncc1)c1ccc(CN(C(=O)/C=C/c2ccc(C(F)(F)F)cc2)C2CCN(Cc3ncccn3)CC2)cc1` [Example 29, (E)-N-[4-(Methyl-pyridin-4-yl-amino)-benzyl]-N-(1-pyrimidin-2-ylmethyl-piperidin-4-yl)-3-(4-trifluoromethyl-phenyl)-acrylamide], 0.296 µM. On to `Cc1cc(Nc2ccc(CN(C(=O)/C=C/c3ccc(C(F)(F)F)cc3)C3CCN(Cc4nc(C)cs4)CC3)cc2)ccn1` [Example 42, (E)-N-[4-(2-Methyl-pyridin-4-ylamino)-benzyl]-N-[1-(4-methyl-thiazol-2-ylmethyl)-piperidin-4-yl]-3-(4-trifluoromethyl-phenyl)-acrylamide], for which half-maximal inhibition (IC50) was put at 0.343 µM. Still for that read-out and setting: next, `Cc1cc(Nc2ccc(CN(C(=O)/C=C/c3ccc(C(F)(F)F)cc3)C3CCN(Cc4nccs4)CC3)cc2)ccn1` [Example 40, (E)-N-[4-(2-Methyl-pyridin-4-ylamino)-benzyl]-N-(1-thiazol-2-ylmethyl-piperidin-4-yl)-3-(4-trifluoromethyl-phenyl)-acrylamide]: 0.341 µM.

The compound `CC(C)CCN1CC[C@H](N(Cc2ccc(N(C)c3ccncc3)cc2)C(=O)/C=C/c2ccc(C(F)(F)F)cc2)[C@H](F)C1` (racemic) [Example 77, (±)-(E)-N-(cis-3-fluoro-1-isopentylpiperidin-4-yl)-N-(4-(methyl(pyridin-4-yl)amino)benzyl)-3-(4-(trifluoromethyl)phenyl)acrylamide] registered an IC50 of 0.053 µM. `CN(c1ccncc1)c1ccc(CN(C(=O)/C=C/c2ccccc2Cl)C2CCN(Cc3ccccc3)CC2)cc1` [Example 154, (E)-N-(1-Benzyl-piperidin-4-yl)-3-(2-chloro-phenyl)-N-[4-(methyl-pyridin-4-yl-amino)-benzyl]-acrylamide] had an IC50 of 0.145 µM.

Compound `CC(c1ccccc1)N1CCC(N(Cc2ccc(N(C)c3ccncc3)cc2)C(=O)/C=C/c2ccc(C(F)(F)F)cc2)CC1` (racemic) [Example 30, (±)-(E)-N-[4-(Methyl-pyridin-4-yl-amino)-benzyl]-N-[1-(1-phenyl-ethyl)-piperidin-4-yl]-3-(4-trifluoromethyl-phenyl)-acrylamide] returned an IC50 of 0.175 µM.

On to `CN1CCN(c2ccc(CN(C(=O)/C=C/c3ccc(C(F)(F)F)cc3)C3CCN(C4CCCC4)CC3)cc2)CC1` [Example 200, (E)-N-(1-Cyclopentyl-piperidin-4-yl)-N-[4-(4-methyl-piperazin-1-yl)-benzyl]-3-(4-trifluoromethyl-phenyl)-acrylamide], for which the IC50 amounted to 0.232 µM. The same measure, in the same setting: the result for `Cc1cc(Nc2ccc(CN(C(=O)/C=C/c3ccc(C(F)(F)F)cc3)C3CCN(C4CCN(C)CC4)CC3)cn2)ccn1` [Example 111, (E)-N-(1′-Methyl-[1,4′]bipiperidinyl-4-yl)-N-[6-(2-methyl-pyridin-4-ylamino)-pyridin-3-ylmethyl]-3-(4-trifluoromethyl-phenyl)-acrylamide] reads 0.165 µM; that for `O=C(/C=C/c1ccc(C(F)(F)F)cc1)N(Cc1ccc(-c2ccccn2)cc1)C1CCN(C2CCCC2)CC1` [Example 198, (E)-N-(1-Cyclopentyl-piperidin-4-yl)-N-(4-pyridin-2-yl-benzyl)-3-(4-trifluoromethyl-phenyl)-acrylamide], 0.355 µM. Same read-out and setting: the result for `CN(c1ccncc1)c1ccc(CN(C(=O)/C=C/c2ccc(C(F)(F)F)cc2)C2CN(C3CCCC3)C2)cc1` [Example 102, (E)-N-(1-Cyclopentyl-azetidin-3-yl)-N-[4-(methyl-pyridin-4-yl-amino)-benzyl]-3-(4-trifluoromethyl-phenyl)-acrylamide] reads 0.081 µM. In turn, `CN1CCC(N2CCC[C@H](N(Cc3ccc(N(C)c4ccncc4)cc3)C(=O)/C=C/c3ccc(C(F)(F)F)cc3)C2)CC1` [Example 55, (S,E)-N-(4-(methyl(pyridin-4-yl)amino)benzyl)-N-(1′-methyl-[1,4′-bipiperidin]-3-yl)-3-(4-(trifluoromethyl)phenyl)acrylamide] came in with an IC50 of 0.012 µM. Consider `Cc1cc(Nc2ccc(CN(C(=O)/C=C/c3ccc(C(F)(F)F)cc3)C3CCN(CCC(F)(F)F)CC3)cc2)ccn1` [Example 39, (E)-N-[4-(2-Methyl-pyridin-4-ylamino)-benzyl]-3-(4-trifluoromethyl-phenyl)-N-[1-(3,3,3-trifluoro-propyl)-piperidin-4-yl]-acrylamide], for which the IC50 was 0.155 µM.

`O=C(/C=C/c1ccc(C(F)(F)F)cc1)N(Cc1ccc(Nc2ccncn2)cc1)C1CCN(C2CCCC2)CC1` [Example 92, (E)-N-(1-Cyclopentyl-piperidin-4-yl)-N-[4-(pyrimidin-4-ylamino)-benzyl]-3-(4-trifluoromethyl-phenyl)-acrylamide] had an IC50 of 0.269 µM. The same measure, in the same setting: the result for `Cc1cc(Nc2ccc(CN(C(=O)/C=C/c3ccc(Cl)cc3)C3CCN(C4CC4)CC3)cc2)ccn1` [Example 210, (E)-3-(4-Chloro-phenyl)-N-(1-cyclopropyl-piperidin-4-yl)-N-[4-(2-methyl-pyridin-4-ylamino)-benzyl]-acrylamide] reads 0.174 µM. The same measure, in the same setting: the result for `COc1ccc(/C=C/C(=O)N(Cc2ccc(N(C)c3ccncc3)cc2)C2CCN(Cc3ccccc3)CC2)cc1` [Example 149, (E)-N-(1-Benzyl-piperidin-4-yl)-3-(4-methoxy-phenyl)-N-[4-(methyl-pyridin-4-yl-amino)-benzyl]-acrylamide] reads 0.181 µM.

As usually defined, the IC50 is the concentration that gives 50% inhibition.
